Data reported in US9695155B2, “Herbicidal substituted pyrimidinyloxy benzene compounds” (E. I. DU PONT DE NEMOURS AND COMPANY, priority 2013, dated 2017).

Legend:
wheat [1] = assay: Test A preemergence; assay type: in vivo, Triticum aestivum
Outline: (§1)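 Visual 0–100 rating (100 = complete control) taken about 10 d post-treatment relative to untreated checks. Preemergence: directed soil spray on sown loam/sand pots. Postemergence: seedlings 2–10 cm, 1–2 leaf. Non-phytotoxic solvent formulation with surfactant.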

corn [2] = assay: Test A preemergence; assay type: in vivo, Zea mays; settings: for Corn plant response rating (0 to 100 scale) / Plant response rating, Corn: 125 g ai/ha
Outline: as §1

giant foxtail [3] = assay: Test A postemergence; assay type: in vivo, Setaria faberii
Outline: as §1

rice = assay: Test B flooded paddy test; assay type: in vivo, Oryza sativa; settings: Flood, 250 g ai/ha; 0 to 100 scale where 0 is no effect and 100 is complete control
Outline: (§2)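 Compound added straight to paddy water, with pots kept flooded 3 cm above soil, on plants grown to the 2-leaf stage. Visual scoring 0-100 (100 = complete control) against untreated controls after 13 to 15 greenhouse days.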

barnyardgrass [4] = assay: Test A postemergence; assay type: in vivo, Echinochloa crus-galli
Outline: as §1

barnyardgrass [5] = assay: Test A preemergence; assay type: in vivo, Echinochloa crus-galli; settings: for Barnyardgrass plant response rating (0 to 100 scale, 0 is no effect, 100 is complete control) / Plant response rating, Barnyardgrass: 125 g ai/ha
Outline: as §1

pigweed [6] = assay: Test A postemergence; assay type: in vivo, Amaranthus retroflexus
Outline: as §1

velvetleaf [7] = assay: Test A preemergence; assay type: in vivo, Abutilon theophrasti
Outline: as §1

velvetleaf [8] = assay: Test A postemergence; assay type: in vivo, Abutilon theophrasti
Outline: as §1

large (Lg) crabgrass [9] = assay: Test A preemergence; assay type: in vivo, Digitaria sanguinalis; settings: for Crabgrass, Large plant response rating (0 to 100 scale) / Plant response rating, Crabgrass, Large: 125 g ai/ha
Outline: as §1

wheat [10] = assay: Test A postemergence; assay type: in vivo, Triticum aestivum
Outline: as §1

pigweed [11] = assay: Test A preemergence; assay type: in vivo, Amaranthus retroflexus
Outline: as §1

sedge, umbrella = assay: Test B flooded paddy test; assay type: in vivo, Cyperus difformis; settings: Flood, 250 g ai/ha; 0 to 100 scale where 0 is no effect and 100 is complete control
Outline: as §2

barnyardgrass [12] = assay: Test B flooded paddy test; assay type: in vivo, Echinochloa crus-galli; settings: Flood, 250 g ai/ha; 0 to 100 scale where 0 is no effect and 100 is complete control
Outline: as §2

giant foxtail [13] = assay: Test A preemergence; assay type: in vivo, Setaria faberii; settings: for Foxtail, Giant plant response rating (0 to 100 scale) / Plant response rating, Foxtail, Giant: 125 g ai/ha
Outline: as §1

morningglory [14] = assay: Test A postemergence; assay type: in vivo, Ipomoea spp.
Outline: as §1

Heteranthera limosa = assay: Test B flooded paddy test; assay type: in vivo; settings: Flood, 250 g ai/ha; 0 to 100 scale where 0 is no effect and 100 is complete control
Outline: as §2

corn [15] = assay: Test A postemergence; assay type: in vivo, Zea mays
Outline: as §1

morningglory [16] = assay: Test A preemergence; assay type: in vivo, Ipomoea spp.
Outline: as §1

large (Lg) crabgrass [17] = assay: Test A postemergence; assay type: in vivo, Digitaria sanguinalis
Outline: as §1

[18] = 1000 g ai/ha, 0 to 100 scale, 0 no effect, 100 complete control, approx. 10 days
[19] = 1000 g ai/ha, 0 to 100 scale, 0 no effect, 100 complete control
[20] = 500 g ai/ha, 0 to 100 scale where 0 is no effect and 100 is complete control
[21] = 125 g ai/ha, 0 to 100 scale where 0 is no effect and 100 is complete control
[22] = 0 to 100 scale where 0 is no effect and 100 is complete control
[23] = 125 g ai/ha, 0 to 100 scale, 0 no effect, 100 complete control

Compound	Plant response rating, Rice (rice)	Plant response rating, Sedge, Umbrella (sedge, umbrella)	Plant response rating, Barnyardgrass (barnyardgrass [12])	Plant response rating, Ducksalad (Heteranthera limosa)	Wheat plant response rating (0 to 100 scale) (wheat [1]; 125 g ai/ha)	Wheat plant response rating (wheat [1]; [20])	Corn plant response rating (corn [2]; [20])	Plant response rating, Foxtail, Giant (giant foxtail [3]; [20])	Plant response rating, Barnyardgrass (barnyardgrass [4]; [20])	Barnyardgrass plant response rating (barnyardgrass [5]; [20])	Plant response rating, Pigweed (pigweed [6]; [20])	Velvetleaf plant response rating (velvetleaf [7]; [20])	Plant response rating, Velvetleaf (velvetleaf [8]; [20])	Crabgrass, Large plant response rating (large (Lg) crabgrass [9]; [20])	Plant response rating, Wheat (wheat [10]; [20])	Pigweed plant response rating (pigweed [11]; [20])	Foxtail, Giant plant response rating (giant foxtail [13]; [20])	Plant response rating, Morningglory (morningglory [14]; [20])	Plant response rating, Corn (corn [15]; [20])	Plant response rating, Crabgrass, Large (large (Lg) crabgrass [17]; [20])	further results
C[Si](C)(C)c1cn(-c2ccccc2Oc2ncc(Cl)cn2)nn1 [Compound 297]	0	0	0	0																	Wheat plant response rating (wheat [1]; [18]): 0; Corn plant response rating (corn [2]; [18]): 0; Plant response rating, Foxtail, Giant (giant foxtail [3]; [19]): 10; Plant response rating, Barnyardgrass (barnyardgrass [4]; [19]): 10; Barnyardgrass plant response rating (barnyardgrass [5]; [18]): 10; Plant response rating, Pigweed (pigweed [6]; [19]): 70; Velvetleaf plant response rating (velvetleaf [7]; [18]): 50; Plant response rating, Velvetleaf (velvetleaf [8]; [19]): 60; Crabgrass, Large plant response rating (large (Lg) crabgrass [9]; [18]): 90; Plant response rating, Wheat (wheat [10]; [19]): 0; Pigweed plant response rating (pigweed [11]; [18]): 70; Foxtail, Giant plant response rating (giant foxtail [13]; [18]): 80; Plant response rating, Morningglory (morningglory [14]; [19]): 30; Plant response rating, Corn (corn [15]; [19]): 0; Morningglory plant response rating (morningglory [16]; [18]): 0; Plant response rating, Crabgrass, Large (large (Lg) crabgrass [17]; [19]): 30
Cc1ccc(Oc2ncc(Cl)cn2)c(-n2cc(Br)cn2)c1Br [Compound 202]	0	10	0	30	0	0	0	30	0	10	50	0	70	70	0	0	70	20	0	50	Corn plant response rating (0 to 100 scale) (corn [2]): 0; Foxtail, Giant plant response rating (giant foxtail [3]; [21]): 10; Barnyardgrass plant response rating (barnyardgrass [4]; [21]): 0; Barnyardgrass plant response rating (0 to 100 scale, 0 is no effect, 100 is complete control) (barnyardgrass [5]): 0; Pigweed plant response rating (pigweed [6]; [21]): 30; Velvetleaf plant response rating (0 to 100 scale) (velvetleaf [7]; 125 g ai/ha): 0; Velvetleaf plant response rating (velvetleaf [8]; [21]): 50; Crabgrass, Large plant response rating (0 to 100 scale) (large (Lg) crabgrass [9]): 40; Wheat plant response rating (wheat [10]; [21]): 0; Pigweed plant response rating (0 to 100 scale) (pigweed [11]; 125 g ai/ha): 0; Foxtail, Giant plant response rating (0 to 100 scale) (giant foxtail [13]): 10; Morningglory plant response rating (morningglory [14]; [21]): 0; Corn plant response rating (corn [15]; [21]): 0; Morningglory plant response rating (0 to 100 scale) (morningglory [16]; 125 g ai/ha): 0; Morningglory plant response rating (morningglory [16]; [20]): 0; Crabgrass, Large plant response rating (large (Lg) crabgrass [17]; [21]): 10
N#Cc1cccc(Oc2ncc(Br)cn2)c1-n1cccn1 [Compound 165]	0	0	0	0	0	0	0	20	0	20	80	20	30	90	0	90	90	20	0	10	Plant response rating, Corn (corn [2]; [22]): 0; Foxtail, Giant plant response rating (giant foxtail [3]; [21]): 10; Barnyardgrass plant response rating (barnyardgrass [4]; [21]): 0; Plant response rating, Barnyardgrass (barnyardgrass [5]; [22]): 0; Pigweed plant response rating (pigweed [6]; [21]): 30; Velvetleaf plant response rating (0 to 100 scale) (velvetleaf [7]; 125 g ai/ha): 10; Velvetleaf plant response rating (velvetleaf [8]; [21]): 10; Plant response rating, Crabgrass, Large (large (Lg) crabgrass [9]; [22]): 50; Wheat plant response rating (wheat [10]; [21]): 0; Pigweed plant response rating (0 to 100 scale) (pigweed [11]; 125 g ai/ha): 60; Plant response rating, Foxtail, Giant (giant foxtail [13]; [22]): 20; Morningglory plant response rating (morningglory [14]; [21]): 10; Corn plant response rating (corn [15]; [21]): 0; Morningglory plant response rating (0 to 100 scale) (morningglory [16]; 125 g ai/ha): 0; Crabgrass, Large plant response rating (large (Lg) crabgrass [17]; [21]): 0
N#Cc1cnn(-c2c(C=O)cccc2Oc2ncc(Cl)cn2)c1 [Compound 237]	0	0	0	0	0	0	0	0	0	10	70	10	30	10	0	80	0	0	0	0	Corn plant response rating (0 to 100 scale) (corn [2]): 0; Foxtail, Giant plant response rating (giant foxtail [3]; [21]): 0; Barnyardgrass plant response rating (barnyardgrass [4]; [21]): 0; Barnyardgrass plant response rating (0 to 100 scale, 0 is no effect, 100 is complete control) (barnyardgrass [5]): 0; Pigweed plant response rating (pigweed [6]; [21]): 30; Velvetleaf plant response rating (0 to 100 scale) (velvetleaf [7]; 125 g ai/ha): 0; Velvetleaf plant response rating (velvetleaf [8]; [21]): 20; Crabgrass, Large plant response rating (0 to 100 scale) (large (Lg) crabgrass [9]): 0; Wheat plant response rating (wheat [10]; [21]): 0; Pigweed plant response rating (0 to 100 scale) (pigweed [11]; 125 g ai/ha): 0; Foxtail, Giant plant response rating (0 to 100 scale) (giant foxtail [13]): 0; Morningglory plant response rating (morningglory [14]; [21]): 0; Corn plant response rating (corn [15]; [21]): 0; Morningglory plant response rating (0 to 100 scale) (morningglory [16]; 125 g ai/ha): 0; Morningglory plant response rating (morningglory [16]; [20]): 0; Crabgrass, Large plant response rating (large (Lg) crabgrass [17]; [21]): 0
CCOC(=O)c1cnn(-c2c(C#N)cccc2Oc2ncc(Cl)cn2)c1 [Compound 301]	0	0	0	0	0	0	0	0	0	0	30	0	0	0	0	0	0	0	0	0	Corn plant response rating (0 to 100 scale) (corn [2]): 0; Plant response rating, Foxtail, Giant (giant foxtail [3]; [23]): 0; Plant response rating, Barnyardgrass (barnyardgrass [4]; [23]): 0; Barnyardgrass plant response rating (0 to 100 scale, 0 is no effect, 100 is complete control) (barnyardgrass [5]): 0; Plant response rating, Pigweed (pigweed [6]; [23]): 0; Velvetleaf plant response rating (0 to 100 scale) (velvetleaf [7]; 125 g ai/ha): 0; Plant response rating, Velvetleaf (velvetleaf [8]; [23]): 0; Crabgrass, Large plant response rating (0 to 100 scale) (large (Lg) crabgrass [9]): 0; Plant response rating, Wheat (wheat [10]; [23]): 0; Pigweed plant response rating (0 to 100 scale) (pigweed [11]; 125 g ai/ha): 0; Foxtail, Giant plant response rating (0 to 100 scale) (giant foxtail [13]): 0; Plant response rating, Morningglory (morningglory [14]; [23]): 0; Plant response rating, Corn (corn [15]; [23]): 0; Morningglory plant response rating (0 to 100 scale) (morningglory [16]; 125 g ai/ha): 0; Morningglory plant response rating (morningglory [16]; [20]): 0; Plant response rating, Crabgrass, Large (large (Lg) crabgrass [17]; [23]): 0
O=Cc1cccc(Oc2ncc(Br)cn2)c1-n1cc(C(F)(F)F)cn1 [Compound 161]	0	0	0	0		0	0	0	0	10	80	20	20	0	0	100	0	0	0	0	Plant response rating, Wheat (wheat [1]; [21]): 0; Plant response rating, Corn (corn [2]; [22]): 0; Foxtail, Giant plant response rating (giant foxtail [3]; [21]): 0; Barnyardgrass plant response rating (barnyardgrass [4]; [21]): 0; Plant response rating, Barnyardgrass (barnyardgrass [5]; [22]): 0; Pigweed plant response rating (pigweed [6]; [21]): 50; Plant response rating, Velvetleaf (velvetleaf [7]; [21]): 10; Velvetleaf plant response rating (velvetleaf [8]; [21]): 10; Plant response rating, Crabgrass, Large (large (Lg) crabgrass [9]; [22]): 0; Wheat plant response rating (wheat [10]; [21]): 0; Plant response rating, Pigweed (pigweed [11]; [21]): 90; Plant response rating, Foxtail, Giant (giant foxtail [13]; [22]): 0; Morningglory plant response rating (morningglory [14]; [21]): 0; Corn plant response rating (corn [15]; [21]): 0; Plant response rating, Morningglory (morningglory [16]; [21]): 0; Morningglory plant response rating (morningglory [16]; [20]): 0; Crabgrass, Large plant response rating (large (Lg) crabgrass [17]; [21]): 0
